The results in this text go back to patent publication US20240189289A1, “INHIBITORS OF EPHB3 SIGNALING” (The Brigham and Women`s Hospital, Inc., priority 2021, published 2024).

Read-outs that look alike come from different tables or passages of the source.

Assay type in all cases: biochemical
For one assay, the target named is T1, EphB3 (Homo sapiens, UniProt P54753).
T1 sequence (P54753 34-998): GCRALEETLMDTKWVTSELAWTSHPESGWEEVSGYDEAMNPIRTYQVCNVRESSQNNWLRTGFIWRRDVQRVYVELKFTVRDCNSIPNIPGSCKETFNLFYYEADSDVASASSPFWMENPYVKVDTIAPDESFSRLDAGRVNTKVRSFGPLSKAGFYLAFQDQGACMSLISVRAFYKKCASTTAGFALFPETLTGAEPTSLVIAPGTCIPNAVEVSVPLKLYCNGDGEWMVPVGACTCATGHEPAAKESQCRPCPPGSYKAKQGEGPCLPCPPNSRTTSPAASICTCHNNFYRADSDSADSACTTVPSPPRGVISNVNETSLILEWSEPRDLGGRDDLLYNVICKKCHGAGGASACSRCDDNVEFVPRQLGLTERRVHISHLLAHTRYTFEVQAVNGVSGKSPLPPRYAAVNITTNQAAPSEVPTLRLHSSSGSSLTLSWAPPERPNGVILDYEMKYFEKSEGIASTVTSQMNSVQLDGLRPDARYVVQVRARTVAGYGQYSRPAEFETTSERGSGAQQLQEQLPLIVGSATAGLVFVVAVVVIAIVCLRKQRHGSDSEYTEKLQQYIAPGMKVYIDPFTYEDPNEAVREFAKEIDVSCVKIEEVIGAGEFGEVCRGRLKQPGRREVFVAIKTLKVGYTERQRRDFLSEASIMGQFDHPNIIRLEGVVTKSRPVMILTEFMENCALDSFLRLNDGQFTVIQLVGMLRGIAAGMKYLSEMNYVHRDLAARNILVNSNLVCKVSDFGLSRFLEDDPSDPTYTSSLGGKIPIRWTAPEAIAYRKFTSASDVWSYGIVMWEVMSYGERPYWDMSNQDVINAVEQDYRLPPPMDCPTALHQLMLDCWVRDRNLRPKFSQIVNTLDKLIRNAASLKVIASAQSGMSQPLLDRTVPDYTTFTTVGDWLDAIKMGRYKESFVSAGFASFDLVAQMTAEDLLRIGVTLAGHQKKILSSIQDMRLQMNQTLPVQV
Nature of the assay: EphB3 radiometric kinase activity assay (33P ATP filter binding). The settings on record: for remaining activity at 0.01 µM: 10 nM compound, read-out: EphB3 % act 10 nM; for remaining activity at 0.03 µM: 30 nM compound, read-out: EphB3 % act 30 nM; for remaining activity at 0.1 µM: 100 nM compound, read-out: EphB3 % act 100 nM; for IC50: read-out: EphB3 (nM) IC50; for remaining activity at 0.3 µM: 300 nM compound, read-out: EphB3 % act 300 nM. Here is the method:
EphB3 radiometric kinase activity assay. To study the EphB3 kinase activity, a radioactive filter binding assay using 33P ATP was performed as described at the […] International Centre for Kinase profiling. […] The mix was harvested onto P81 filter plates and counts were read on a Topcount NXT.

In another assay the target is T2, EphB4 (Homo sapiens, UniProt P54760).
T2 sequence (P54760 16-987): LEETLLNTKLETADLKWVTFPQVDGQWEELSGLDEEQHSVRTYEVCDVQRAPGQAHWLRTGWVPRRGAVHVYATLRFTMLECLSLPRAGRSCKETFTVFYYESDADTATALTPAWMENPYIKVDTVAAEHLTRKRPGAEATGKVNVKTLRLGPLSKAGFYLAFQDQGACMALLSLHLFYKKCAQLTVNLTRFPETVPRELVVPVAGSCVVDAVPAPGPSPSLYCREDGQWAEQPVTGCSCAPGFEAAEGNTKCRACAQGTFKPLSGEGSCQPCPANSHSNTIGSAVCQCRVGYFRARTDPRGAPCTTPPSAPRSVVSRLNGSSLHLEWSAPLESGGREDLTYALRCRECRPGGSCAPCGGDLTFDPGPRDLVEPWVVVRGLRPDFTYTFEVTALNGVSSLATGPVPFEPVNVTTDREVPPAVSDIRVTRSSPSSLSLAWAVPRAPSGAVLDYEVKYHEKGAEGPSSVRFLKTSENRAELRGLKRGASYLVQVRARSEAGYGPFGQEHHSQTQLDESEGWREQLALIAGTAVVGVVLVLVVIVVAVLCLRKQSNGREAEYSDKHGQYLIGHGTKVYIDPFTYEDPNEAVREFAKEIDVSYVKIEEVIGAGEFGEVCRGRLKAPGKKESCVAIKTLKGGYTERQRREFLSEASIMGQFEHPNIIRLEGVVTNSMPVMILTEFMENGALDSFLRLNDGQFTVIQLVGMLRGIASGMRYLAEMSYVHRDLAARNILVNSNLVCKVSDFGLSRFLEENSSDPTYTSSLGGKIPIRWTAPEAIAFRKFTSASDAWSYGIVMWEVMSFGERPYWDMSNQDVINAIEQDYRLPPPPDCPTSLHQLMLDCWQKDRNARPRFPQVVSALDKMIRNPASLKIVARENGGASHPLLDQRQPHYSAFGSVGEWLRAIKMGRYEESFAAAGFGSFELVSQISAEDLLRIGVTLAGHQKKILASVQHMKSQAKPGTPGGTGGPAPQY
Nature of the assay: Eph receptor kinase activity assay (radiometric), EphB4. Conditions: for remaining activity at 0.01 µM: 10 nM compound, read-out: EphB4 % act 10 nM; for remaining activity at 0.03 µM: 30 nM compound, read-out: EphB4 % act 30 nM; for remaining activity at 0.1 µM: 100 nM compound, read-out: EphB4 % act 100 nM; for remaining activity at 0.3 µM: 300 nM compound, read-out: EphB4 % act 300 nM.

Another assay has as its target EphA4 (Homo sapiens, UniProt P54764). The assay is described as follows: Eph receptor kinase activity assay (radiometric), EphA4. The settings on record: for remaining activity at 0.01 µM: 10 nM compound, read-out: EphA4 % act 10 nM; for remaining activity at 0.03 µM: 30 nM compound, read-out: EphA4 % act 30 nM; for remaining activity at 0.1 µM: 100 nM compound, read-out: EphA4 % act 100 nM; for remaining activity at 0.3 µM: 300 nM compound, read-out: EphA4 % act 300 nM.

In the next assay the target is EphA2 (Homo sapiens, UniProt P29317). Nature of the assay: Eph receptor kinase activity assay (radiometric), EphA2. Conditions: for remaining activity at 0.01 µM: 10 nM compound, read-out: EphA2 % act 10 nM; for remaining activity at 0.03 µM: 30 nM compound, read-out: EphA2 % act 30 nM; for remaining activity at 0.1 µM: 100 nM compound, read-out: EphA2 % act 100 nM; for remaining activity at 0.3 µM: 300 nM compound, read-out: EphA2 % act 300 nM.
Sequence of EphA2 (P29317 24-976): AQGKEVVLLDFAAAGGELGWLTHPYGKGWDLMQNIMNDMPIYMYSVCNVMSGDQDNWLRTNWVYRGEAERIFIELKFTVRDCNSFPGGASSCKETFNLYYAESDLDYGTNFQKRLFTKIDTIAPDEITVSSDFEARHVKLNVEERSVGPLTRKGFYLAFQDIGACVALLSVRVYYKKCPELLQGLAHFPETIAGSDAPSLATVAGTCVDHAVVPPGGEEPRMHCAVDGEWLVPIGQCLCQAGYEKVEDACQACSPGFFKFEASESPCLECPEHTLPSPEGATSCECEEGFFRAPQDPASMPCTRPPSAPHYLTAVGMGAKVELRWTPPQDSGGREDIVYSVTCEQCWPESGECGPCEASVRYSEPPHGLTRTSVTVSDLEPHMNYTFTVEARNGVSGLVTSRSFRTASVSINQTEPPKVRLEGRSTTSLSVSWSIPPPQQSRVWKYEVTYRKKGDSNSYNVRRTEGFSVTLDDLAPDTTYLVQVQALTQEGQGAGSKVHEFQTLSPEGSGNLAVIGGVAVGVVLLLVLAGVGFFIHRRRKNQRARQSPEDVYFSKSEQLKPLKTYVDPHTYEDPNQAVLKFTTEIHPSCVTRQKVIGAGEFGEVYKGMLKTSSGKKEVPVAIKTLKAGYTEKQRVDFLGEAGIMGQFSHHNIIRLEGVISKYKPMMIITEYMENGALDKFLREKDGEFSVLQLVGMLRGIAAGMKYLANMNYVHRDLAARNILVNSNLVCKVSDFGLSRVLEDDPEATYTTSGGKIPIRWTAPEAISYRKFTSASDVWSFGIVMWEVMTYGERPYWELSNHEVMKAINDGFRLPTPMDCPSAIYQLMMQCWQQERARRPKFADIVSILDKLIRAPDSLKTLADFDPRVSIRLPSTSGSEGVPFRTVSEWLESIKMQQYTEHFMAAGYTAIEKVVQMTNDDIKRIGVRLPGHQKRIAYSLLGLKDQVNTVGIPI

Sequence of EphA4 (P54764 20-986): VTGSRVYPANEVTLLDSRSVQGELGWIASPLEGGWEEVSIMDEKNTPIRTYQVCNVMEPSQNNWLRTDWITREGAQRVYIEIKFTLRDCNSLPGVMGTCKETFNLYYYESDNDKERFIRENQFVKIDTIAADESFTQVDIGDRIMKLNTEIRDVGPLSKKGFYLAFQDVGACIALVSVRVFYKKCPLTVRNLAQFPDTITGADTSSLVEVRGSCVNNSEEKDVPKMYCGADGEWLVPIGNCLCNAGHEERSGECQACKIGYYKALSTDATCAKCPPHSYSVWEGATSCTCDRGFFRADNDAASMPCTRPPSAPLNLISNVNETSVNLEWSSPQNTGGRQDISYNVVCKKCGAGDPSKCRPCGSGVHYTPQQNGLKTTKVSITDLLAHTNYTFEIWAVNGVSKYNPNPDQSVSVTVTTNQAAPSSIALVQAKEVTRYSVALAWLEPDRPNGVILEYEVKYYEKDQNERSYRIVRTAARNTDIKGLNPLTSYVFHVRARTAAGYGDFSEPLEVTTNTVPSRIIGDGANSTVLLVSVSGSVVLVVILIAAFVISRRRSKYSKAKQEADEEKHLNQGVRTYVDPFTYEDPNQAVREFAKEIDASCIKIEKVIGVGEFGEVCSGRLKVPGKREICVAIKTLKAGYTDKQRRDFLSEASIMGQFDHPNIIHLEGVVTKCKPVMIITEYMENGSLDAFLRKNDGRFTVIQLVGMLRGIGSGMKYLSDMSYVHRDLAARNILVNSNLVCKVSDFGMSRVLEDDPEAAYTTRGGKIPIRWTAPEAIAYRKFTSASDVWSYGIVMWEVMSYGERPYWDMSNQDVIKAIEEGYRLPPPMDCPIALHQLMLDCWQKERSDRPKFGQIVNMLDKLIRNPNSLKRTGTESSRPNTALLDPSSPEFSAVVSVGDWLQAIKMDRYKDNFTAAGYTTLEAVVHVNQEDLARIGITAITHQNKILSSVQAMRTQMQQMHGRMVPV

On to `O=C(Nc1ccccc1Cl)c1cnc2ccc(-c3ccccc3O)cn12` [compound 116, N-(2-chlorophenyl)-6-(2-hydroxyphenyl)imidazo[1,2-a]pyridine-3-carboxamide], for which the remaining activity at 0.01 µM at EphB3 was determined as 112%; on EphB4, 96.5%; at EphA4, 99.5%; at EphA2, 76.4%. The remaining activity at 0.03 µM at EphB3 was found to be 65.5%; at EphB4, 103%; at EphA4, 77%; at EphA2, 84%. The remaining activity at 0.1 µM at EphB3 was 42.9%; at EphB4, 103%; at EphA4, 82.4%; at EphA2 it was 61.3%. Also, the IC50 was 60 nM on EphB3 (Table 2, Example 12); 687 nM against EphB4 (Table 2, Example 12); 248 nM against EphA4 (Table 2, Example 12); 345 nM against EphA2 (Table 2, Example 12).

On to `O=C(Nc1ccccc1Cl)c1cnc2ccc(-c3ccncc3)cn12` [compound 114, N-(2-Chlorophenyl)-6-(pyridin-4-yl)imidazo[1,2-a]pyridine-3-carboxamide], for which the remaining activity at 0.01 µM was determined as 52% on EphB3, 39% at EphB4, 49% on EphA4 and 51% at EphA2. Further, the remaining activity at 0.1 µM is 13% at EphB3, 4% at EphB4, 21% at EphA4 and 32% at EphA2. Further, the remaining activity at 0.3 µM at EphB3 was determined as 5%; on EphB4, 4%; on EphA4, 10%; at EphA2 it was 14%.

As for `COc1ccc(Cl)c(NC(=O)c2cnc3ccc(C4CCNCC4)cn23)c1` [compound 118, N-(2-Chloro-5-methoxyphenyl)-6-(piperidin-4-yl)imidazo[1,2-a]pyridine-3-carboxamide], the remaining activity at 0.01 µM on EphB3 is 116%; at EphB4, 97.4%; at EphA4 it was 87%; at EphA2 it was 104%. The remaining activity at 0.03 µM at EphB3 was found to be 73.9%; at EphB4 it was 97.5%; at EphA4, 55.9%; on EphA2, 83.5%. Moreover, the remaining activity at 0.1 µM at EphB3 is 91.4%; on EphB4, 66.5%; at EphA4, 47.3%; at EphA2, 82.1%. Also, the IC50 at EphB3 (Table 3, Example 13) turned out to be 630 nM; on EphB4 (Table 3, Example 13) it was 407 nM; at EphA4 (Table 3, Example 13), 57 nM; against EphA2 (Table 3, Example 13) it was 288 nM.

As for `O=C(Nc1ccccc1Cl)c1cnc2ccc(-c3ccccn3)cn12` [compound 112, N-(2-chlorophenyl)-6-(pyridin-2-yl)imidazo[1,2-a]pyridine-3-carboxamide], the remaining activity at 0.01 µM at EphB3 came to 50%; on EphB4, 37%; on EphA4 it was 50%; on EphA2, 53%. Moreover, the remaining activity at 0.1 µM at EphB3 was 14%; on EphB4, 7%; on EphA4 it was 25%; on EphA2, 33%. The remaining activity at 0.3 µM came to 7% at EphB3, 2% at EphB4, 12% on EphA4 and 14% at EphA2.

Turning to `O=C(Nc1ccccc1Cl)c1cnc2ccc(-c3ncccn3)cn12` [compound 115, N-(2-Chlorophenyl)-6-(pyrimidin-2-yl)imidazo[1,2-a]pyridine-3-carboxamide], the remaining activity at 0.01 µM on EphB3 amounted to 108%; on EphB4, 89%; on EphA4 it was 104%; on EphA2, 115%. In addition, the remaining activity at 0.1 µM turned out to be 55% on EphB3, 32% on EphB4, 54% at EphA4 and 67% on EphA2. Moreover, the remaining activity at 0.3 µM amounted to 28% at EphB3, 9% at EphB4, 34% on EphA4 and 40% on EphA2.

Take `NC(=O)c1cccc(-c2ccc3ncc(C(=O)Nc4ccccc4Cl)n3c2)c1` [compound 110, 6-(3-Carbamoylphenyl)-N-(2-chlorophenyl)imidazo[1,2-a]pyridine-3-carboxamide]: the remaining activity at 0.01 µM on EphB3 was found to be 58%; at EphB4, 75%; on EphA4, 65%; at EphA2, 71%. For the same compound, the remaining activity at 0.1 µM turned out to be 39% at EphB3, 48% on EphB4, 36% on EphA4 and 46% on EphA2. Also, the remaining activity at 0.3 µM on EphB3 came to 7%; on EphB4, 3%; at EphA4 it was 12%; on EphA2, 21%.

For the compound `COc1cccc(-c2ccc3ncc(C(=O)Nc4ccccc4Cl)n3c2)c1` [compound 103, N-(2-Chlorophenyl)-6-(3-methoxyphenyl)imidazo[1,2-a]pyridine-3-carboxamide], the remaining activity at 0.01 µM is 103% on EphB3, 94.7% on EphB4, 102% on EphA4 and 76% on EphA2. Moreover, the remaining activity at 0.03 µM at EphB3 amounted to 86.2%; on EphB4 it was 106%; on EphA4, 85.1%; on EphA2, 75.3%. Moreover, the remaining activity at 0.1 µM is 41% on EphB3, 132% on EphB4, 85.6% at EphA4 and 70.5% on EphA2.

One may read the IC50 as the concentration that gives 50% inhibition.
